Assays:
BALB/c mice = test: MSU crystal-induced inflammatory cell infiltration into six-day air pouch (gout model); assay type: in vivo, mouse; details: orally dosed; FIG. 15
Procedure: Animals: BALB/c mice, male, 5-6 weeks, weighing approximately 19-23 g were used. Animals were housed and maintained according to IACUC protocols.
Air Pouch: Each mouse was anesthetized and injected with 6 mL of sterile air subcutaneously (SC) at the nape of the neck and the injection site was sealed with flexible colloidon to create an air pouch. Three days later, the mice were injected with 3 mL of sterile air SC at the same site and the injection site was sealed with flexible colloidon.
Preparation of MSU Crystals: 10 g uric acid (Sigma, Cat. U2625, lot BCBM5312V) was heated to 60° C. in 2 L purified water, containing 5.8 mL 10 N NaOH. The pH of the heated mixture was adjusted to 8.9, yielding a clear solution which was stored overnight at 4-8° C. to allow MSU crystals to form and precipitate. The MSU crystals were washed three times with 1 L purified water and stored at 37° C. to dry.
Formulation of Degrader: 0.5% CMC/0.25% Tween-80 was prepared by dissolving 0.5 g carboxymethylcellulose (Sigma, Cat. C4888, lot 101K0185) in 100 mL de-ionized water followed by the addition of 0.25 mL Tween-80 (Sigma, Cat. P1754, lot 073K0064). […]
Termination, Cell Collection and Data: Four hours after MSU/saline injection, the mice were anesthetized and humanely exsanguinated. […] The air pouch was gently massaged, the contents immediately removed, and the exudate volume recorded. […]

OCI-LY10 cells = test: OCI-LY10 flow staining (Ki67, active Caspase-3, IRAK4); assay type: cell-based, human; details: FIG. 4
Procedure: OC1-LY10 cell line was cultured in IMDM medium supplemented with 20% FBS, B-ME and pen/strep. On Day 1, cells were plated at 200K per well in 96 well plates. Compounds were diluted to 1000× in DMSO, then further diluted to 100× in media, and added to cells at 4 concentrations over 4 different timepoints (24h, 48h, 72h and 96h). Timepoints were staggered so all cells were harvested and stained at the same time. Paclitaxel was added as a positive control and a DMSO control for each timepoint was also included. On day 5, plates were harvested and cells were fixed, permeabilized, and stored at −4 C until further processing. On day 8, the Ki67 plates were stained using KI-67-APC antibody (Biolegend, Cat #350514). The Caspase 3 plates were stained using the PE Active Caspase-3 Apoptosis Kit (BD Biosciences, Cat #550914) and the IRAK 4 plates were stained with Hu IRAK4 A^b Alexa 647 Clone: L29-525 antibody (BD, Cat #560315). Cells were resuspended in staining buffer and run on a Beckman Coulter CytoFlex 13 color Cytometer (Model #A00-1-1102, Serial #AS10086).

CN(CCCOCCCc1cccc2c1n(C)c(=O)n2C1CCC(=O)NC1=O)C[C@H]1CC[C@H](n2cc(NC(=O)c3coc(-c4ccnc(NCC5CC5)c4)n3)c(C(F)F)n2)CC1 (mixture of isomers) [I-30, 2-[2-(Cyclopropylmethylamino)-4-pyridyl]-N-[3-(difluoromethyl)-1-[4-[[3-[3-[1-(2,6-dioxo-3-piperidyl)-3-methyl-2-oxo-benzimidazol-4-yl]propoxy]propyl-methyl-amino]methyl]cyclohexyl]pyrazol-4-yl] oxazole-4-carboxamide]
IL-1β in plasma (BALB/c mice): dose-dependent decrease in IL-1β
induction of apoptosis in OCI-LY10 lymphoma line (OCI-LY10 cells): induces apoptosis

— patent US11352350B2, “IRAK degraders and uses thereof” (Kymera Therapeutics, Inc., priority 2018, dated 2022)
